This assay deals with P388 leukemia ip, CD2F1 mice, survival T/C. Kind of assay: NCI In Vivo Anticancer Drug Screen. Data for tumor model P388 Leukemia (intraperitoneal) in CD2F1 (CDF1) mice. The following applies: endpoint: median survival time, higher = longer survival. The procedure, abridged: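 Mice carrying the transplanted tumor received test compound or vehicle. Survival was recorded in each group, and the value is the treated-group measurement divided by that of the vehicle-treated control group.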

The mark [1] stands for this setting: dose: 12.5 mg/kg/injection, schedule: Q01DX009 (ip), vehicle: saline with Tween-80.
Setting [2] is: dose: 50.0 mg/kg/injection, schedule: Q01DX009 (ip), vehicle: saline with Tween-80.
Setting [3] is: dose: 60.0 mg/kg/injection, schedule: Q01DX005 (ip), vehicle: saline with Tween-80.
The mark [4] stands for this setting: dose: 120.0 mg/kg/injection, schedule: Q01DX005 (ip), vehicle: saline with Tween-80.
The mark [5] stands for this setting: dose: 240.0 mg/kg/injection, schedule: Q01DX005 (ip), vehicle: saline with Tween-80.
The mark [6] stands for this setting: dose: 100.0 mg/kg/injection, schedule: Q01DX009 (ip), vehicle: saline with Tween-80.
Setting [7] is: dose: 200.0 mg/kg/injection, schedule: Q01DX009 (ip), vehicle: saline with Tween-80.
Setting [8] is: dose: 50.0 mg/kg/injection, schedule: Q01DX009 (ip), vehicle: Klucel (hydroxypropylcellulose) (HPC).
[9] abbreviates: dose: 100.0 mg/kg/injection, schedule: Q01DX009 (ip), vehicle: Klucel (hydroxypropylcellulose) (HPC).
[10] abbreviates: dose: 100.0 mg/kg/injection, schedule: Q01DX001 (ip), vehicle: saline with Tween-80.
The mark [11] stands for this setting: dose: 200.0 mg/kg/injection, schedule: Q01DX001 (ip), vehicle: saline with Tween-80.
The mark [12] stands for this setting: dose: 50.0 mg/kg/injection, schedule: Q01DX005 (ip), vehicle: Klucel (hydroxypropylcellulose) (HPC).
Where [13] appears, read: dose: 100.0 mg/kg/injection, schedule: Q01DX005 (ip), vehicle: Klucel (hydroxypropylcellulose) (HPC).
[14] abbreviates: dose: 200.0 mg/kg/injection, schedule: Q01DX005 (ip), vehicle: Klucel (hydroxypropylcellulose) (HPC).
Where [15] appears, read: dose: 25.0 mg/kg/injection, schedule: Q01DX005 (ip), vehicle: saline with Tween-80.
[16] abbreviates: dose: 50.0 mg/kg/injection, schedule: Q01DX005 (ip), vehicle: saline with Tween-80.
[17] abbreviates: dose: 100.0 mg/kg/injection, schedule: Q01DX005 (ip), vehicle: saline with Tween-80.
The mark [18] stands for this setting: dose: 200.0 mg/kg/injection, schedule: Q01DX005 (ip), vehicle: saline with Tween-80.

“And” between values parts separate entries of the source, which are not always exact repeats. Equal entries are not always repeated. Inconclusive results and toxic doses are left out.

For `CC1(C(N)=O)CO1` (centres undefined), the T/C is 103 % of control (dose: 100.0 mg/kg/injection, schedule: Q04DX003 (ip), vehicle: saline); 100 % of control (dose: 200.0 mg/kg/injection, schedule: Q04DX003 (ip), vehicle: saline); 100 % of control (dose: 400.0 mg/kg/injection, schedule: Q04DX003 (ip), vehicle: saline).
In the case of `C[C@]12CC[C@H](O)CC1=CC[C@@H]1[C@@H]2CC[C@]2(C)c3nc4ccccc4cc3C[C@@H]12`, the T/C is 104 % of control under setting [1]; 100 % of control (dose: 12.5 mg/kg/injection, schedule: Q04DX003 (ip), vehicle: saline with Tween-80); 100 % of control (dose: 25.0 mg/kg/injection, schedule: Q01DX009 (ip), vehicle: saline with Tween-80); 100 % of control (dose: 25.0 mg/kg/injection, schedule: Q04DX003 (ip), vehicle: saline with Tween-80); 95 % of control under setting [2]; 90 % of control (dose: 50.0 mg/kg/injection, schedule: Q04DX003 (ip), vehicle: saline with Tween-80).
`CSC1=NC=C(C#N)C2=NC(c3c(F)cccc3Cl)NN12` (centres undefined): the T/C runs as follows: under setting [3], 89 % of control; under setting [4], 89 % of control; under setting [5], 90 % of control.
Take `COc1cccc(O)c1O`: the T/C runs as follows: (dose: 100.0 mg/kg/injection, schedule: Q01DX009 (ip), vehicle: saline) 101 % of control; (dose: 200.0 mg/kg/injection, schedule: Q01DX009 (ip), vehicle: saline) 100 % of control; (dose: 400.0 mg/kg/injection, schedule: Q01DX009 (ip), vehicle: saline) 111 % of control.
Regarding `NC(Cc1ccccc1[N+](=O)[O-])C(=O)O` (centres undefined), the T/C runs as follows: under setting [2], 92 % of control; under setting [6], 93 % of control; under setting [7], 91 % of control.
`CCOC(=O)c1ccc(NC(=O)Nc2nnc(C)c(C)n2)cc1`: the T/C is, setting by setting: under setting [8], 92 % of control; under setting [9], 88 % of control; (dose: 200.0 mg/kg/injection, schedule: Q01DX009 (ip), vehicle: Klucel (hydroxypropylcellulose) (HPC)) 88 % of control.
Consider `Cc1ccc(S(=O)(=O)N/N=C/C(=O)O)cc1`, for which the T/C is 110 % of control and 119 % of control (dose: 6.25 mg/kg/injection, schedule: Q01DX009 (ip), vehicle: Klucel (hydroxypropylcellulose) (HPC)); 106 % of control (dose: 6.25 mg/kg/injection, schedule: Q01DX009 (ip), vehicle: other); 108 % of control (dose: 6.25 mg/kg/injection, schedule: Q01DX009 (ip), vehicle: water); 114 % of control and 117 % of control and 122 % of control (dose: 12.5 mg/kg/injection, schedule: Q01DX009 (ip), vehicle: Klucel (hydroxypropylcellulose) (HPC)); 121 % of control under setting [1]; 152 % of control under setting [8]. Moreover, the T/C under setting [9] is 104 % of control and 119 % of control and 117 % of control; the T/C under setting [6] is 107 % of control.
For `CCOC(=O)c1conc1C`, the T/C runs as follows: (dose: 12.5 mg/kg/injection, schedule: Q01DX009 (ip), vehicle: saline) 112 % of control; (dose: 25.0 mg/kg/injection, schedule: Q01DX009 (ip), vehicle: saline) 106 % of control; (dose: 50.0 mg/kg/injection, schedule: Q01DX009 (ip), vehicle: saline) 101 % of control and 103 % of control.
In the case of `CCC(=O)NCC(CN(C)C)(c1ccccc1)c1ccccc1`, the T/C reads like this: under setting [10], 112 % of control; under setting [11], 100 % of control.
As to `CCC1(CC)CC1C(=O)O` (centres undefined), the T/C is 93 % of control under setting [12], 89 % of control under setting [13] and 89 % of control under setting [14].
As for `CC(C)(C)c1cc(C(=O)[O-])c([OH2+])c(C(C)(C)C)c1.CC(C)(C)c1cc(C(=O)[O-])c([OH2+])c(C(C)(C)C)c1.[Mn+2]`, the T/C was 106 % of control and 111 % of control under setting [3]; 105 % of control and 121 % of control under setting [4].
Consider `O=C(N/N=C/c1ccccc1O)N/N=C/c1ccccc1O`, for which the T/C was 96 % of control under setting [2]; 96 % of control under setting [6]; 96 % of control under setting [7]; 87 % of control (dose: 400.0 mg/kg/injection, schedule: Q01DX009 (ip), vehicle: saline with Tween-80).
As to `CCCCCCCCCCCC[S+](C)CCCCCCCC` (centres undefined), the T/C is 111 % of control and 117 % of control (dose: 0.78 mg/kg/injection, schedule: Q01DX005 (ip), vehicle: saline with Tween-80); 122 % of control (dose: 1.56 mg/kg/injection, schedule: Q01DX005 (ip), vehicle: saline with Tween-80); 124 % of control (dose: 3.13 mg/kg/injection, schedule: Q01DX005 (ip), vehicle: saline with Tween-80).
Turning to `S=C(Nc1ccccc1)SCc1ccc2c(c1)OCO2`, the T/C is 98 % of control (dose: 100.0 mg/kg/injection, schedule: Q01DX001 (ip), vehicle: saline); 101 % of control (dose: 200.0 mg/kg/injection, schedule: Q01DX001 (ip), vehicle: saline); 101 % of control (dose: 400.0 mg/kg/injection, schedule: Q01DX001 (ip), vehicle: saline).
Take `CC(=O)CCS(=O)Cc1ccccc1` (centres undefined): the T/C under setting [3] was 103 % of control, the T/C under setting [4] was 98 % of control and the T/C under setting [5] was 111 % of control.
`COc1cc([C@@H]2c3cc4c(c(OC)c3C[C@H]3COC(=O)[C@@H]32)OCO4)cc(OC)c1OC`: the T/C is, setting by setting: (dose: 12.5 mg/kg/injection, schedule: Q01DX005 (ip), vehicle: Klucel (hydroxypropylcellulose) (HPC)) 100 % of control; (dose: 25.0 mg/kg/injection, schedule: Q01DX005 (ip), vehicle: Klucel (hydroxypropylcellulose) (HPC)) 103 % of control; under setting [12], 103 % of control and 111 % of control.
With `c1ccc(C2SCC3(CCCCC3)CS2)cc1`, the T/C was 98 % of control under setting [15]; 101 % of control (dose: 50.0 mg/kg/injection, schedule: Q01DX001 (ip), vehicle: saline with Tween-80); 100 % of control under setting [16]; 101 % of control under setting [10]; 100 % of control under setting [17]; 94 % of control under setting [11]. Besides, the T/C was 98 % of control under setting [18] and 88 % of control (dose: 400.0 mg/kg/injection, schedule: Q01DX001 (ip), vehicle: saline with Tween-80).
Consider `COc1cc(OC)c2c(c1)Oc1cc(OC)cc(OC)c1C2`, for which the T/C under setting [12] is 97 % of control, the T/C under setting [13] was 96 % of control and the T/C under setting [14] is 95 % of control.
For `OC1C2CCC(C2)C1CN1CCOCC1` (centres undefined), the T/C was 99 % of control under setting [15], 99 % of control under setting [16], 99 % of control under setting [17] and 96 % of control under setting [18].
Regarding `Fc1ccc(CN2COc3c(ccc4cccnc34)C2)cc1`, the T/C is 96 % of control (dose: 100.0 mg/kg/injection, schedule: Q04DX003 (ip), vehicle: Klucel (hydroxypropylcellulose) (HPC)); 97 % of control (dose: 200.0 mg/kg/injection, schedule: Q04DX003 (ip), vehicle: Klucel (hydroxypropylcellulose) (HPC)); 94 % of control (dose: 400.0 mg/kg/injection, schedule: Q04DX003 (ip), vehicle: Klucel (hydroxypropylcellulose) (HPC)).
As to `Cc1ccc(N=Nc2c(O)n(-c3ccccc3C)c(=S)n(-c3ccc(Br)cc3)c2=O)cc1`, the T/C is 100 % of control under setting [2] and 101 % of control under setting [6].
Take `COc1c(C(C)C)ccc2c1CCC1=C3COC(=O)C3CCC12C` (centres undefined): the T/C was 109 % of control (dose: 6.25 mg/kg/injection, schedule: Q01DX009 (ip), vehicle: DMSO); 99 % of control (dose: 12.5 mg/kg/injection, schedule: Q01DX009 (ip), vehicle: DMSO); 97 % of control (dose: 25.0 mg/kg/injection, schedule: Q01DX009 (ip), vehicle: DMSO).
In the case of `CCOC(=O)C(C(C)N1CCOCC1)N1CCOCC1` (centres undefined), the T/C was 110 % of control under setting [12], 100 % of control under setting [13] and 101 % of control under setting [14].
Take `CC(C)(Nc1ccccc1)C(=O)OC(C)(C)C(=O)Nc1ccccc1`: the T/C by setting is: under setting [16], 90 % of control; under setting [17], 91 % of control; under setting [18], 91 % of control.
